Earlier results, collected in patent US20250235554A1, “METHODS FOR IMPROVING ADENO-[…] (AAV) […]” (Novartis AG, priority 2021, published 2025).

System: glymphatic flow
Details: mice and rats

## Cc1cccc([C@H](C)c2cnc[nH]2)c1C [Dexmedetomidine]
  effect on brain and spinal cord exposure of intrathecally administered drugs: increases brain and spinal cord drug exposure of intrathecally administered drugs
